Results from US20200368211A1, “INHIBITION OF GAMMA-GLUTAMYLTRANSFERASE AND GLUTATHIONE CATABOLISM TO ENHANCE THE EFFICACY OF NF-KB SIGNALLING PATHWAY INHIBITORS” (UNIVERSITAET HEIDELBERG, priority 2017, published 2020).
“Also recorded” adds a separate entry of the source.

Experiments:
[1] = human plasma, stated as achievable; cited from earlier work
MEC1 cells [2] = test: MTT cell proliferation assay, MEC1 cells; type: cell-based, human; settings: for Effect of auranofin and BSO low-dose combination on activity of NF-κB inhibitors, MEC1: auranofin 0.25-0.5 μM plus BSO 1.25-10 μM with BAY 11-7082 or EF24
Description: (§1) For metabolic activity assays, here MTT-assays, cell density was 3×10^4 cells per well (96 well plate). For ROS/superoxide detection assays cell density was 1×10^5 per tube (volume 1 ml). For NF-κB family member activation assays nuclear cell extracts were used (9×10^6 cells/6 ml volume in 6 well plates). The MTT or XTT assay is the most reliable for assessment of cell growth. In principal all assays are based on staining of viable cells after treatment. Cytotoxic effects in cell lines may also be assessed by [^3H] thymidine incorporation (see below). Cell proliferation was assessed by the MTT assay. […] The plates were incubated for 72 h under standard conditions. After addition of 15 μl of a 5 mg/ml MTT solution (MTT; Sigma, Germany) to each well and incubation for another 4 h, 100 μl/well of a 10% sodium dodecyl sulphate solution in 0.01 M hydrochloric acid were added and the plates were incubated overnight under the same conditions (stain development). Subsequently, the absorbance of each well at 540 nm (reference wavelength 690 nm) was recorded with an absorbance plate reader (Sunrise, Tecan, Switzerland). Blank control values (no drug, no cells) were subtracted from the sample values and the means of replicate wells for each drug dilution and the control (cells grown in absence of the drug) were used to calculate the extent of relative cell proliferation (as percentage of the control) and growth inhibition.

MOLM13 cells [3] = test: MTT cell proliferation assay, MOLM13 cells; type: cell-based, human; settings: for Effect of auranofin and BSO low-dose combination on activity of NF-κB inhibitors, MOLM13: auranofin 0.25-0.5 μM plus BSO 1.25-10 μM with BAY 11-7082 or EF24
Description: as §1, with “For NF-κB family member activation assays nuclear cell extracts were used (9×10^6 cells/6 ml volume in 6 well plates).” left out

HL60 cells = test: MTT cell proliferation assay, HL60 cells; type: cell-based, human; settings: 200 μM OU749, 10% HS
Description: For assessment of cytostatic and/or cytotoxic effects HL60 cells were washed in serum-free RPMI-1640 medium supplemented with 2 mM L-glutamine and 1% penicillin/streptomycin and diluted to 1.25×10^5/ml (logarithmic cell growth). Cells were incubated with OU749 for 10 minutes prior to addition of serum (FCS or HS, both 10%) to washed cells resulting in a density of 1.11×10^5/ml. For MTT-assays cell density was 1×10^4 cells per well (96 well plate).
The MTT or XTT assay is the most reliable for assessment of cell growth. In principal all assays are based on staining of viable cells after treatment. Cytotoxic effects in cell lines may also be assessed by [^3H] thymidine incorporation (see below). Cell proliferation was assessed by the MTT assay. After washing in serum-free medium, pre-incubation with inhibitors of the glutathione catabolism, and addition of defined serum or albumin or serum+albumin concentrations, 90-μl aliquots of the cell suspension (density see above) were dispensed into 96-well flat-bottomed microtitre plates containing 10 μl/well of serial drug dilutions. The plates were incubated for 72 h under standard conditions. After addition of 15 μl of a 5 mg/ml MTT solution (MTT; Sigma, Germany) to each well and incubation for another 4 h, 100 μl/well of a 10% sodium dodecyl sulphate solution in 0.01 M hydrochloric acid were added and the plates were incubated overnight under the same conditions (stain development). Subsequently, the absorbance of each well at 540 nm (reference wavelength 690 nm) was recorded with an absorbance plate reader (Sunrise, Tecan, Switzerland). Blank control values (no drug, no cells) were subtracted from the sample values and the means of replicate wells for each drug dilution and the control (cells grown in absence of the drug) were used to calculate the extent of relative cell proliferation (as percentage of the control) and growth inhibition. Since inhibitors were initially dissolved in DMSO, serial drug dilutions and controls were prepared to finally achieve 0.2% DMSO in all wells (total volume 100 μl); no anti-proliferative effects could be observed at this DMSO concentration in the investigated cell lines.
After washing in serum-free medium cells were diluted to desired density (3.70×10^5/ml for MEC1 and MOLM13, 1.25×10^5/ml for HL60) and HS and FCS was added both in a final concentration of 10%. Then 90-μl aliquots of the cell suspension (densities after addition of serum: 3.33×10^5/ml for MEC1 and MOLM13, 1.1×10^5/ml for HL60) were dispensed into 96-well flat-bottomed microtitre plates containing 10 μl/well of serial drug dilutions of NF-κB inhibitors. The cell concentrations in the 96 well plate were: 3×10^4/well for MEC1 and MOLM13, 1×10^4/well for HL60.
Then 90-μl aliquots of the cell suspension (densities after addition of serum: 3.33×10^5/ml for MEC1 and MOLM13, 1.1×10^5/ml for HL60) were dispensed into 96-well flat-bottomed microtitre plates containing 10 μl/well of serial drug dilutions of NF-κB inhibitors. The cell concentrations in the 96 well plates were: 3×10^4/well for MEC1 and MOLM13, 1×10^4/well for HL60.

MEC1 cells [4] = test: Intracellular ROS/superoxide detection by flow cytometry, MEC1 cells; type: cell-based, human
Description: (§2) Intracellular ROS/superoxide levels were assessed by the ROS/superoxide Detection Assay Kit (ab139476, Abcam, Cambridge, UK) according to the manufacturer's protocol.
(§3) Cells were incubated with OU749 for 10 minutes prior to addition of serum or albumin (FCS or HS, both 10%, BSA or different HSA preparations as indicated), or albumin-supplemented FCS (supplementation with HSA or BSA: final albumin concentration 4-5 mg/ml). The final cell concentration was 1×10^5/ml/tube (volume 1 ml). Mean fluorescence intensities of at least 10000 events were assessed and compared.
(§4) ROS and superoxide levels were assessed by flow cytometry using the cellular ROS/superoxide Detection Assay Kit (ab139476, Abcam, Cambridge, UK) according to the manufacturer's protocol. […] Mean fluorescence intensities of at least 10000 events were assessed and compared.

MOLM13 cells [5] = test: Intracellular ROS/superoxide detection by flow cytometry, MOLM13 cells; type: cell-based, human
Description: as §2, §3, §4

[6] = system: NF-κB family of transcription factors (p65, p50, c-Rel, p52 and RelB); test: NF-κB family member activation (TransAM, nuclear extracts), MEC1 cells; type: cell-based, human; settings: 200 μM OU749, 10% HS, 4 h
Description: (§5) After 4 h incubation with defined concentrations of inhibitors of the NF-κB signalling pathway with or without co-incubation with OU749, nuclear extracts were prepared using the AM nuclear extract kit (Active Motif, La Hulpe, Belgium) according to the manufacturer's protocol. Protein concentration of the respective extracts was measured according to the Bradford method and 10 μg of total protein per preparation was used for assessment of the NF-κB family member activation.
(§6) For the assessment of NF-κB family member activation (p65, p50, c-Rel, p52 and RelB) the TransAM® NF-κB Family Transcription Factor Assay kit was applied (Active Motif, La Hulpe, Belgium) according to the manufacturer's instructions. Results were expressed as relative activation levels (relative to the activation of DMSO controls either in the presence of 10% FCS or 10% HS) and compared between different experimental settings.

[7] = system: NF-κB family of transcription factors (p65, p50, c-Rel, p52 and RelB); test: NF-κB family member activation (TransAM, nuclear extracts), MOLM13 cells; type: cell-based, human; settings: 200 μM OU749, 10% HS, 4 h
Description: as §5, §6

[8] = OU749 100 μM for 10% FCS, 200 μM for 10% HS or BSA/HSA 20 mg/ml, versus DMSO
[9] = with BAY 11-7082, 10% FCS (to a lesser extent 10% HS), versus H2O

C/C(O)=C(\C#N)C(=O)Nc1ccc(C(F)(F)F)cc1 [A77 726]
Achievable plasma concentrations of the active metabolite of leflunomide [1]: about 176 μg/ml; also recorded: about 635 μM

CCCCS(=N)(=O)CCC(N)C(=O)O (centres unmarked) [BSO, buthionine sulfoximine]
Effect of auranofin and BSO low-dose combination on activity of NF-κB inhibitors, MEC1 (MEC1 cells [2]; 10% HS): enhance/restore the activity of NF-κB inhibitors | Effect of auranofin and BSO low-dose combination on activity of NF-κB inhibitors, MOLM13 (MOLM13 cells [3]; 10% HS): enhance/restore the activity of NF-κB inhibitors

COc1ccc(Cc2nnc(NS(=O)(=O)c3ccccc3)s2)cc1 [OU749, N-[5-(4-methoxybenzyl)-1,3,4-thiadiazol-2-yl]benzenesulfonamide]
Toxic effects of OU749 in HS-supplemented systems, MEC1 (MEC1 cells [2]; 200 μM OU749, 10% HS): no toxic effects | OU749 concentration above which anti-proliferative effects are apparent, MEC1, 10% FCS (MEC1 cells [2]; 10% FCS, 72 h, single agent): above 50 μM | OU749 concentration at which anti-proliferative effects appear, MEC1, 10% HS (MEC1 cells [2]; 10% HS, 72 h, single agent): ≥ 200 µM | Toxic effects of OU749 in HS-supplemented systems, MOLM13 (MOLM13 cells [3]; 200 μM OU749, 10% HS): no toxic effects | OU749 concentration above which anti-proliferative effects are apparent, MOLM13, 10% FCS (MOLM13 cells [3]; 10% FCS, 72 h, single agent): above 50 μM | OU749 concentration at which anti-proliferative effects appear, MOLM13, 10% HS (MOLM13 cells [3]; 10% HS, 72 h, single agent): ≥ 200 µM | Toxic effects of OU749 in HS-supplemented systems, HL60 (HL60 cells): no toxic effects | ROS levels, OU749 versus DMSO, MEC1 in HS medium (MEC1 cells [4]; 200 μM OU749, 10% HS): enhanced ROS levels | Intracellular ROS levels, OU749 in presence of serum and albumin, MEC1 (MEC1 cells [4]; [8]): increases intracellular ROS levels | ROS levels, OU749 versus DMSO, MOLM13 in HS medium (MOLM13 cells [5]; 200 μM OU749, 10% HS): enhanced ROS levels | Intracellular ROS levels, OU749 in presence of serum and albumin, MOLM13 (MOLM13 cells [5]; [8]): increases intracellular ROS levels | Nuclear levels of NF-κB transcription factors, OU749 alone in HS, MEC1 [6]: increased nuclear levels of different members of the NF-κB family of transcription factors | Nuclear levels of NF-κB transcription factors, OU749 alone in HS, MOLM13 [7]: increased nuclear levels of different members of the NF-κB family of transcription factors

CC(=O)OC[C@H]1O[C@@H]([S-])[C@H](OC(C)=O)[C@@H](OC(C)=O)[C@@H]1OC(C)=O.CCP(CC)CC.[Au+] [auranofin]
Effect of auranofin and BSO low-dose combination on activity of NF-κB inhibitors, MEC1 (MEC1 cells [2]; 10% HS): enhance/restore the activity of NF-κB inhibitors | Effect of auranofin and BSO low-dose combination on activity of NF-κB inhibitors, MOLM13 (MOLM13 cells [3]; 10% HS): enhance/restore the activity of NF-κB inhibitors

N[C@@H](CS)C(=O)NCC(=O)O [cysteinyl-glycin]
Effect of cysteinyl-glycin on activity of NF-κB inhibitors, MEC1 (MEC1 cells [2]; [9]): decrease the activity of NF-κB inhibitors | Effect of cysteinyl-glycin on activity of NF-κB inhibitors, MOLM13 (MOLM13 cells [3]; [9]): decrease the activity of NF-κB inhibitors
